Experimental data taken from patent US10143696B2, “Methods and compositions for decreasing gastric emptying” (priority 2015, dated 2018).
“Also recorded” adds a separate entry of the source. Where two headings read alike, the source gives them in different places.

Experiments:
Sprague-Dawley rats [1] = assay: Gastric emptying of a test meal in rats; assay type: in vivo, rat
Experimental: (§1) Rats were fasted overnight (16-18 hours) with free access to water. The next morning, compound was administered and animals were individually housed in bedding-free cages with pre-weighed food available ad libitum and access to water for 2 hours. The water and food were then removed and the remaining food was re-weighed. Gastric emptying of the ingested meal was assessed 4 hours later. Animals were euthanized by CO2 inhalation followed by thoracotomy. The abdominal cavity was opened, the pylorus and cardia were clamped and the stomach was removed. The excised stomach was weighed and then opened along the greater curvature, rinsed with tap water, lightly dried and re-weighed. The amount of food in the stomach (grams) was estimated based on the difference between the total weight of the stomach plus its contents and the weight of the stomach after the contents were removed. The meal ingested (food intake) was determined by the difference between pre- and post-feeding weight at the end of the 2 hour period. Gastric emptying during the 4 hour experiment is represented as: Gastric emptying=[1−(gastric content/food intake)]×100. Gastric Secretion
Male, Sprague-Dawley rats (weighing between 229-264 g each and 4 rats per test group) were fasted overnight (19 hours). The rats were then orally administered 10 mg/kg, 30 mg/kg or 100 mg/kg of Compound A with a 0.5% MC or Capryol:Solutol:Polyethyleneglycol (CSP) vehicle or with a 0.5% MC or CSP vehicle alone. The rats were then placed in individual, bedding-free cages and allowed ad libitium access to pre-weighed food and water for two hours. The food and water were then removed and the food was reweighed. Gastric emptying was then assessed four hours later by euthanizing the rats and analyzing the stomach and stomach contents. […] Data are represented as the means+the standard error of the means (S.E.M). % Gastric Emptying in 4 hours=(1−(gastric content/food intake))×100. […] Data are represented as the means+S.E.M.
Male, Sprague-Dawley rats (weighing between 235-268 g each and 4-6 rats per test group) were fasted overnight (19 hours). The rats were then subcutaneously administered 10 mg/kg, 30 mg/kg or 100 mg/kg of carbamazepine (Compound B) with a 25% HPBCD vehicle or with a 25% HPBCD vehicle alone. Some test animals were not dosed (i.e., naïve). The rats were then placed in individual, bedding-free cages and allowed ad libitium access to pre-weighed food and water for two hours. The food and water were then removed and the food was reweighed. […] Data are represented as the means+S.E.M. % Gastric Emptying in 4 hours=(1−(gastric content/food intake))×100.
Male, Sprague-Dawley rats (weighing between 238-274 g each and 6 rats per test group) were fasted overnight (19 hours). The rats were then orally administered 30 mg/kg, 100 mg/kg or 300 mg/kg of carbamazepine (Compound B) with a 0.5% MC vehicle or with a 0.5% MC vehicle alone. The rats were then placed in individual, bedding-free cages and allowed ad libitium access to pre-weighed food and water for two hours. The food and water were then removed and the food was reweighed. […] Data are represented as the means+S.E.M. % Gastric Emptying in 4 hours=(1−(gastric content/food intake))×100.
Male, Sprague-Dawley rats (weighing between 235-276 g each and 4-6 rats per test group) were fasted overnight (19 hours).

Sprague-Dawley rats [2] = assay: Repeated oral administration: gastric emptying, food intake, body weight; assay type: in vivo, rat
Experimental: as §1
Male, Sprague-Dawley rats (weighing between 240-283 g each and 5-6 rats per test group) were orally dosed with 3 mg/kg, 10 mg/kg or 30 mg/kg of Compound A with a 0.5% MC vehicle or with a 0.5% MC vehicle alone once a day for five days and were then fasted overnight. The rats were then dosed again on the sixth day and placed in individual, bedding-free cages and allowed ad libitium access to pre-weighed food and water for two hours. The food and water were then removed and the food was reweighed. Data were analyzed using a one-way ANOVA followed by a Dunnett's Multiple Comparison Test, where *P<0.05 as compared to the appropriate vehicle. Data are represented as the means+S.E.M. % Gastric Emptying in 4 hours=(1−(gastric content/food intake))×100.

[3] = assay type: in vivo, cynomolgus monkeys
Experimental: Compound A (10-100 mg/kg) was administered orally to cynomolgus monkeys and blood specimens were collected prior to dose administration and at target time points of 0.5, 1, 3, 5, 8, and 24 hours post-dose administration. Blood was collected via the femoral vein into tubes containing tripotassium ethylene-diamine-tetraacetic acid (K3EDTA) as the anticoagulant. Whole blood was centrifuged to obtain plasma (9000×g for 10 minutes at 4° C.) which was transferred into labeled tubes and stored at −80° C. Plasma calibration standards, blanks, and study samples were processed by protein precipitation. To a 50 μL aliquot 150 μL of a 10 ng/mL solution of an internal standard and 150 μL of acetonitrile was added. The mixture was eluted using positive pressure and analyzed by liquid chromatography/mass spectrometry/mass spectrometry with m/z transition of 462-417. Compound A concentrations were calculated using area response ratios and a regression line constructed from the concentrations and peak area response ratios of the calibration standards. […]. The lower limit of quantification (LLOQ) for the plasma method is approximately 0.5 ng/mL and the upper limit of quantification (ULOQ) is approximately 1000 ng/mL extracted from plasma using a 50-μL aliquot of sample.
As such, a pharmacokinetic and observational study was conducted in cynomologous monkeys (FIG. 16). Plasma concentrations of Compound A were measured following a single oral dose of 10, 50 and 100 mg/kg up to 24 hours post-dosing (FIGS. 16A, B and C).

[4] = naïve rats, p.o. 100 mg/kg, 0.5% MC (Example 13)
[5] = p.o. 10, 30, 100 mg/kg, 0.5% MC or CSP vehicle (Example 1)
[6] = 30 mg/kg p.o. once a day, over 5 days
[7] = p.o. 3, 10, 30 mg/kg once a day for 6 days, 0.5% MC

C[C@H](Nc1cc(C(N)=O)nc(-c2ccc(Oc3ccc(OC(F)(F)F)cc3)cc2)n1)C(N)=O [Compound A]
% Gastric Emptying in 4 hours (Sprague-Dawley rats [1]; Compound A 3 mg/kg s.c. alone, 25% HPBCD (Examples 11, 12), 3 mg/kg): inhibits the percent of gastric emptying independently | gastric emptying (Sprague-Dawley rats [1]; administered subcutaneously (Example 9)): decrease in gastric emptying | gastric emptying inhibition potency of Compound A with a CSP vehicle compared to Compound D in 25% HPBCD (Sprague-Dawley rats [1]; all dosages tested): maintains a greater gastric emptying inhibition potency as compared to Compound D | gastric emptying inhibition potency compared between compounds (Sprague-Dawley rats [1]; comparison at equal or similar dosages, routes and vehicles): greater gastric emptying inhibition potency than Compound B; also recorded: greater gastric emptying inhibition potency when compared to Compound B; also recorded: greater gastric emptying inhibition potency at lower dosages; also recorded: highest in vivo potency | gastric emptying (Sprague-Dawley rats [1]; lowest dose tested orally, 10 mg/kg): ~0% | % Gastric Emptying in 4 hours (Sprague-Dawley rats [1]; [4]): statistically significant decrease in gastric emptying | stomach weight (Sprague-Dawley rats [1]; [4]): increase in stomach weight | % Gastric Emptying in 4 hours (Sprague-Dawley rats [1]; [5]): increased inhibition of gastric emptying | stomach weight (Sprague-Dawley rats [1]; [5]): increased stomach weight | gastric emptying inhibition and stomach weight increase, CSP vehicle compared to 0.5% MC vehicle (Sprague-Dawley rats [1]; p.o. 10-100 mg/kg (Example 1)): greater inhibiting effect on gastric emptying and stomach weight increase was observed with a CSP vehicle | food intake (Sprague-Dawley rats [1]; rat, in vivo): decreased food intake | stomach weight (Sprague-Dawley rats [1]; rat, in vivo): increased stomach weight | stomach weight and food intake (Sprague-Dawley rats [1]; rat, in vivo): comparable to that of Compound A alone | increase in potency on gastric emptying, subcutaneous as compared to oral administration (Sprague-Dawley rats [1]; s.c. vs p.o.): 3-10 fold | food intake (Sprague-Dawley rats [1]; vagotomized and naïve rats, p.o. 100 mg/kg (Example 13)): Food intake is inhibited | stomach weight (Sprague-Dawley rats [1]; vagotomized rats, p.o. 100 mg/kg, 0.5% MC, vs vagotomy alone (Example 13)): not statically significantly different from vagotomy alone | % Gastric Emptying in 4 hours (Sprague-Dawley rats [1]; vagotomized rats, p.o. 100 mg/kg, 0.5% MC, vs vagotomy alone (Example 13), 100 mg/kg): numerically additive effect on the inhibition of gastric emptying but not a statistically significant effect; also recorded: not statically significantly different from vagotomy alone | body weight lost as a percentage of total body weight (Sprague-Dawley rats [2]; [6]): 2.6% | mean body weight loss (Sprague-Dawley rats [2]; [6]): 6.3 g | body weight (Sprague-Dawley rats [2]; measured on day 5, p.o. 3, 10, 30 mg/kg once a day): decreased for all Compound A dosage levels | % Gastric Emptying in 4 hours (Sprague-Dawley rats [2]; [7]): inhibited the percentage of gastric emptying | food intake (Sprague-Dawley rats [2]; [7]): decrease in food intake | time up to which plasma concentration continued increasing ([3]; monkey, p.o. 10 mg/kg): 8 h | time up to which plasma concentration continued increasing ([3]; monkey, p.o. 50 mg/kg and 100 mg/kg): 24 h | plasma levels versus dose ([3]; monkey, single oral dose of 10, 50 and 100 mg/kg): increased with increasing dose in an approximately linear fashion | plasma concentrations ([3]; monkey, single oral dose of 10, 50 and 100 mg/kg, up to 24 hours): measurable at all doses | plasma level of the individual monkey presenting the highest plasma levels ([3]; p.o., at 24 hrs): over 3000 ng/ml
